Data on four compounds can be found in US5747503A, “Selective inhibitors of biogenic amine transporters” (priority 1996, dated 1998).

“Also recorded” adds a separate entry of the source. Where two headings read alike, the source gives them in different places.

The subject of experiment [1] is [^3 H]DA uptake. Briefly: Synaptosomal [^3 H]DA uptake inhibition. The following applies: for IC50: Table 2, nM ± SD, rat striatum synaptosomes. Format: biochemical, rat. The protocol:
Synaptosomal uptake assays were carried out as described (Rothman et al. (1993), supra). Briefly, synaptosomes were prepared by homogenization of rat striatum (for [^3 H]DA reuptake) or whole rat brain minus cerebellum (for [^3 H]5-HT reuptake) in ice-cold 10% sucrose, using a Potter-Elvehjem homogenizer. After a 1000×g centrifugation for 10 min at 4° C., the supernatants were retained on ice. The uptake assays were initiated by the addition of 100 μl of synaptosomes to 12×75 mm polystyrene test tubes, which were prefilled with 750 μl of [^3 H]ligand (2 nM [^3 H]5-HT or 5 nM [^3 H]DA) in a Krebs-phosphate buffer (pH 7.4), which contained ascorbic acid (1 mg/ml) and pargyline (50 μM) (buffer), 100 μl of test drugs made up in buffer containing 1 mg/ml bovine serum albumin, and 50 μl of buffer. The [^3 H]5-HT reuptake experiments were conducted in the presence of 100 nM nomifensine and […] GBR12935 in order to block any possible reuptake into NE and DA nerve terminals. […] The nonspecific uptake of each [^3 H]ligand was measured by incubations in the presence of 1 μM GBR12909 ([^3 H]DA) and 10 μM fluoxetine ([^3 H]5-HT). The incubations were terminated after a 15 min ([^3 H]DA) or 30 min ([^3 H]5-HT) incubation at 25° C. by adding 4 ml of wash buffer (10 mM TRIS-HCl, pH 7.4 containing 0.9% NaCl at 25° C.), followed by rapid filtration over Whatman GF/B filters and one additional wash cycle. […] The Krebs-phosphate buffer contained 154.5 mM NaCl, 2.9 mM KCl, 1.1 mM CaCl2, 0.83 mM MgCl2 and 5 mM glucose. The tritium retained on the filters was counted, in a Taurus beta counter, after an overnight extraction into ICN Cytoscint cocktail.
(§1) Inhibition curves were fit to the two parameter logistic equation for the best-fit estimates of the IC50 using nonlinear least squares curve fitting methods as previously described (Rothman et al. (1993), supra); Jones, S. M. and Rogawski, M. A. Mol. Neuropharmacol. 2: 303-310 (1992)).
(§2) Synaptosomal uptake and ligand binding assays were conducted as described
above. Preliminary experiments were conducted to determine the doserange
Each [^3 H] ligand was displaced
by 10 concentrations of test drug. The data of two experiments were
(§3) pooled, and fit to the two parameter logistic equation for the bestfit
estimates of the IC50 reported above.

The target in experiment [2] is T1, NE transporter (Rattus norvegicus, UniProt Q63380).
T1 construct: from tissue; host or cells: brain membranes prepared by a cited method
Briefly: [^3 H]Nisoxetine binding to NE transporter. The protocol:
Membranes for the [^3 H]nisoxetine assay were prepared as described (Rothman, R. B., et al. Synapse 14: 34-39 (1993)).
The [^3 H]nisoxetine assay for the norepinephrine transporter (NE) was carried out as described (Rothman, et al. (1993), supra; Tejani-Butt, S. M., et al. Eur. J. Pharmacol. 191:239-243 (1990)). DA transporters were labeled with [^3 H)CFT with minor modifications of published protocols (Madras, B. K., et al. Mol. Pharmacol. 36: 518-524 (1989)). Briefly, 12×75 mm polystyrene test tubes were prefilled with 100 μl of drug, 100 μl of radiolabeled (1 nM final concentration), 50 μl of buffer. Drugs were dissolved in BB containing 1 mg/ml bovine serum albumin (BB/BSA). Radioligands were made to a final concentration in a protease inhibitor cocktail containing 1 mg/ml BSA {BB containing chymostatin (25 μg/ml), leupeptin (25 μg/ml), EDTA (100 μM), and EGTA (100 μM)}. The assay was initiated by the addition of 750 μl of membranes, prepared as described above. Brandel cell harvesters were used to filter the samples over Whatman GF/B filters, which were presoaked in wash buffer (ice-cold 10 mM TRIS-HCL, pH 7.4 containing 150 mM NaCl) containing 2% polyethylenimine. In this procedure, samples were filtered and then washed with two 4 ml aliquots of ice-cold wash buffer. Nonspecific binding was defined using 10 μM (final concentration) GBR12909. All subsequent steps were identical to those described above.
as §1, §2
Preliminary experiments were conducted to determine the doserange
The data of two experiments were
as §3

Where [3] appears, read: Table 2, nM ±, read-out: [^3 H]Nisoxetine Binding IC50.

T1 sequence (Q63380 1-617): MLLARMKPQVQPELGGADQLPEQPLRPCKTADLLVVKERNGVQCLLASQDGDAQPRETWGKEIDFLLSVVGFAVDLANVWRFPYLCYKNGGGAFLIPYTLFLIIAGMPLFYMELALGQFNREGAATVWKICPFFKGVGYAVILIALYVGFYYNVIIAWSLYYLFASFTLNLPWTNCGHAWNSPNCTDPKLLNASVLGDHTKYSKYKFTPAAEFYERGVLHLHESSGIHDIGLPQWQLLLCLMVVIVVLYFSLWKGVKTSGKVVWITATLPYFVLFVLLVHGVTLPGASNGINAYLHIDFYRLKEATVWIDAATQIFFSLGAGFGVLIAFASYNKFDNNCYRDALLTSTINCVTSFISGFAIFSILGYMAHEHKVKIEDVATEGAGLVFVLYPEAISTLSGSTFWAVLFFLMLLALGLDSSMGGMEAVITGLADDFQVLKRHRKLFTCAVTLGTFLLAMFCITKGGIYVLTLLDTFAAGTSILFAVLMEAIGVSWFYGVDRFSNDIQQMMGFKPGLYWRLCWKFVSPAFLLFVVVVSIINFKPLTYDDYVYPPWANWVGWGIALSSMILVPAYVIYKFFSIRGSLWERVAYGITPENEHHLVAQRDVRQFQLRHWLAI

As a reminder, the IC50 is the concentration needed to halve the response being measured. As for `CN1[C@H](Cc2ccccc2)C[C@H]2Cc3ccccc3[C@H]21` (relative stereo) [RTI-4793-14, (2RS, 3aSR, 8aRS)-1,2,3a,8,8a-Hexahydro-2-benzyl-1-methyl-indeno[1,2-b]pyrrole], the “[^3 H]DA uptake inhibition in words” value in experiment [1] is given as “moderate potency”. The results for the IC50 in experiment [1] and in experiment [2] (setting [3]) were 547 ± 20 nM and 609 ± 48 nM, respectively. In addition, the “[^3 H]nisoxetine binding / NE transporter affinity in words” value in experiment [2] is given as “moderate potency”.

As for `CNC1CC(c2ccc(Cl)c(Cl)c2)c2ccccc21` (stereo not shown) [Indatraline], in experiment [1], the “[^3 H]DA uptake inhibition in words” value was “potently inhibited; also recorded: potent inhibitor” and the IC50 came to 3.23 ± 0.45 nM.

As to `C[C@]12N[C@H](Cc3ccccc31)c1ccccc12` [(+)-MK801], in experiment [1], the “[^3 H]DA uptake inhibition in words” value is “negligible affinity” and the IC50 was more than 10000 nM. The “[^3 H]nisoxetine binding / NE transporter affinity in words” value in experiment [2] is on record as “negligible affinity”. In addition, in experiment [2] (setting [3]), the IC50 was 6580 ± 860 nM.

For `c1ccc(C2(N3CCCCC3)CCCCC2)cc1` [PCP, phencyclidine], 347 nM corresponded to half-maximal inhibition in experiment [1] (IC50). In experiment [2], the IC50 came out at 16630 ± 98 nM and the “[^3 H]nisoxetine binding / NE transporter affinity in words” value is reported as “very low affinity”.
